Measurements as given in patent publication US10973823B2, “Anti-cancer composition consisting of halofuginone and sesquiterpene lactone compounds of artemisia apiacea and use thereof” (Hong Kong Baptist University, priority 2016, dated 2021).

What follows are compounds tested on liver cancer cell HepG2 (assay: MTT assay, liver cancer cell HepG2). Conditions: HF 10 nM, lactone 160 μM, alone or combined, 24 hours.
Type: cell-based
Experimental: (§1) Liver cancer cell line HepG2 was seeded on a 96-well plate, with 100 μl of cell suspension in each well. The culture medium was DMEM supplemented with 10% FBS and 2 mM glutamate. […] 24 hours after adding the compound, the cell survival rate was assessed using the MTT assay, and the combination index (CI) of the combined pharmaceutical of HF and ATS was calculated using the Calcusyn software.
For `C[C@H]1[C@@H](O)O[C@@H]2O[C@@]3(C)CC[C@H]4[C@H](C)CC[C@@H]1[C@@]24OO3` [DAT, dihydroartemisinin], the “Cell death rate (%)” value was 0.81 ± 0.83%. With `O=C(CC1NCCCC1O)Cn1cnc2cc(Br)c(Cl)cc2c1=O` (stereo not drawn) [HF, Halofuginone] the “Cell death rate (%)” value was 0.70 ± 3.11%.

Same assay, conditions: HF 20 nM, lactone 320 μM, alone or combined, 24 hours
With `C[C@H]1[C@@H](O)O[C@@H]2O[C@@]3(C)CC[C@H]4[C@H](C)CC[C@@H]1[C@@]24OO3` [DAT, dihydroartemisinin] the “Cell death rate (%)” value was 1.72 ± 0.15%. In the case of `O=C(CC1NCCCC1O)Cn1cnc2cc(Br)c(Cl)cc2c1=O` (stereo not drawn) [HF, Halofuginone], the “Cell death rate (%)” value was 1.00 ± 2.06%.

Same assay, conditions: HF 40 nM, lactone 640 μM, alone or combined, 24 hours
In the case of `C[C@H]1[C@@H](O)O[C@@H]2O[C@@]3(C)CC[C@H]4[C@H](C)CC[C@@H]1[C@@]24OO3` [DAT, dihydroartemisinin], the “Cell death rate (%)” value was 6.59 ± 2.58%. In the case of `O=C(CC1NCCCC1O)Cn1cnc2cc(Br)c(Cl)cc2c1=O` (stereo not drawn) [HF, Halofuginone], the “Cell death rate (%)” value was 4.00 ± 2.21%.

What follows are compounds tested on melanoma cell A375 (assay: MTT assay, melanoma cell A375). Conditions: HF 10 nM, lactone 160 μM, alone or combined, 24 hours.
Type: cell-based
Experimental: as §1, with “Melanoma” for “Liver cancer”, “A375” for “HepG2”
For `C[C@H]1[C@@H](O)O[C@@H]2O[C@@]3(C)CC[C@H]4[C@H](C)CC[C@@H]1[C@@]24OO3` [DAT, dihydroartemisinin], the “Cell death rate (%)” value was 16.81 ± 5.83%. For `O=C(CC1NCCCC1O)Cn1cnc2cc(Br)c(Cl)cc2c1=O` (stereo not drawn) [HF, Halofuginone], the “Cell death rate (%)” value was 5.70 ± 5.44%.

Same assay, conditions: HF 20 nM, lactone 320 μM, alone or combined, 24 hours
In the case of `C[C@H]1[C@@H](O)O[C@@H]2O[C@@]3(C)CC[C@H]4[C@H](C)CC[C@@H]1[C@@]24OO3` [DAT, dihydroartemisinin], the “Cell death rate (%)” value was 26.35 ± 1.64%. `O=C(CC1NCCCC1O)Cn1cnc2cc(Br)c(Cl)cc2c1=O` (stereo not drawn) [HF, Halofuginone] was tested, and the “Cell death rate (%)” value was 17.70 ± 2.82%.

Same assay, conditions: HF 40 nM, lactone 640 μM, alone or combined, 24 hours
For `C[C@H]1[C@@H](O)O[C@@H]2O[C@@]3(C)CC[C@H]4[C@H](C)CC[C@@H]1[C@@]24OO3` [DAT, dihydroartemisinin], the “Cell death rate (%)” value was 42.55 ± 4.42%. For `O=C(CC1NCCCC1O)Cn1cnc2cc(Br)c(Cl)cc2c1=O` (stereo not drawn) [HF, Halofuginone], the “Cell death rate (%)” value was 35.70 ± 4.76%.

The compounds below were run on gastric cancer cell MGC803 (assay: MTT assay, gastric cancer cell MGC803). Conditions: HF 10 nM, lactone 160 μM, alone or combined, 24 hours.
Type: cell-based
Experimental: as §1, with “Gastric” for “Liver”, “MGC803” for “HepG2”
For `C[C@H]1[C@@H](O)O[C@@H]2O[C@@]3(C)CC[C@H]4[C@H](C)CC[C@@H]1[C@@]24OO3` [DAT, dihydroartemisinin], the “Cell death rate (%)” value was 1.81 ± 0.83%. With `O=C(CC1NCCCC1O)Cn1cnc2cc(Br)c(Cl)cc2c1=O` (stereo not drawn) [HF, Halofuginone] the “Cell death rate (%)” value was 8.10 ± 2.77%.

Same assay, conditions: HF 20 nM, lactone 320 μM, alone or combined, 24 hours
For `C[C@H]1[C@@H](O)O[C@@H]2O[C@@]3(C)CC[C@H]4[C@H](C)CC[C@@H]1[C@@]24OO3` [DAT, dihydroartemisinin], the “Cell death rate (%)” value was 5.32 ± 1.65%. In the case of `O=C(CC1NCCCC1O)Cn1cnc2cc(Br)c(Cl)cc2c1=O` (stereo not drawn) [HF, Halofuginone], the “Cell death rate (%)” value was 20.00 ± 4.18%.

Same assay, conditions: HF 40 nM, lactone 640 μM, alone or combined, 24 hours
With `C[C@H]1[C@@H](O)O[C@@H]2O[C@@]3(C)CC[C@H]4[C@H](C)CC[C@@H]1[C@@]24OO3` [DAT, dihydroartemisinin] the “Cell death rate (%)” value was 42.59 ± 2.43%. With `O=C(CC1NCCCC1O)Cn1cnc2cc(Br)c(Cl)cc2c1=O` (stereo not drawn) [HF, Halofuginone] the “Cell death rate (%)” value was 29.00 ± 3.31%.

The compounds below were run on colon cancer cell HCT-116 (assay: MTT assay, colon cancer cell HCT-116). Conditions: HF 10 nM, ATS/DAT/ASU/ATM 160 μM, alone or combined, 24 hours.
Type: cell-based, Human
Experimental: as §1, with “Human colon” for “Liver”, “HCT-116” for “HepG2”, “software. Tumor cell survival rate=the OD value of the experimental group/the OD value of the control group×100%” for “software.”
With `CO[C@H]1O[C@@H]2O[C@@]3(C)CC[C@H]4[C@H](C)CC[C@@H]([C@H]1C)[C@@]24OO3` [ATM, artemether] the “Cell death rate (%)” value was 33.17 ± 4.46%. In the case of `C[C@H]1[C@@H](O)O[C@@H]2O[C@@]3(C)CC[C@H]4[C@H](C)CC[C@@H]1[C@@]24OO3` [DAT, dihydroartemisinin], the “Cell death rate (%)” value was 36.80 ± 3.33%. With `O=C(CC1NCCCC1O)Cn1cnc2cc(Br)c(Cl)cc2c1=O` (stereo not drawn) [HF, Halofuginone] the “Cell death rate (%)” value was 19.41 ± 4.03%.

Same assay, conditions: HF 20 nM, ATS/DAT/ASU/ATM 320 μM, alone or combined, 24 hours
For `CO[C@H]1O[C@@H]2O[C@@]3(C)CC[C@H]4[C@H](C)CC[C@@H]([C@H]1C)[C@@]24OO3` [ATM, artemether], the “Cell death rate (%)” value was 46.32 ± 3.45%. With `C[C@H]1[C@@H](O)O[C@@H]2O[C@@]3(C)CC[C@H]4[C@H](C)CC[C@@H]1[C@@]24OO3` [DAT, dihydroartemisinin] the “Cell death rate (%)” value was 47.32 ± 3.65%. With `O=C(CC1NCCCC1O)Cn1cnc2cc(Br)c(Cl)cc2c1=O` (stereo not drawn) [HF, Halofuginone] the “Cell death rate (%)” value was 33.06 ± 3.32%.

Same assay, conditions: HF 40 nM, ATS/DAT/ASU/ATM 640 μM, alone or combined, 24 hours
In the case of `CO[C@H]1O[C@@H]2O[C@@]3(C)CC[C@H]4[C@H](C)CC[C@@H]([C@H]1C)[C@@]24OO3` [ATM, artemether], the “Cell death rate (%)” value was 54.50 ± 2.50%. For `C[C@H]1[C@@H](O)O[C@@H]2O[C@@]3(C)CC[C@H]4[C@H](C)CC[C@@H]1[C@@]24OO3` [DAT, dihydroartemisinin], the “Cell death rate (%)” value was 55.57 ± 2.43%. `O=C(CC1NCCCC1O)Cn1cnc2cc(Br)c(Cl)cc2c1=O` (stereo not drawn) [HF, Halofuginone] was tested, and the “Cell death rate (%)” value was 59.27 ± 0.41%.

These compounds were tested on breast cancer cell MCF-7 (assay: MTT assay, breast cancer cell MCF-7). Conditions: HF 10 nM, lactone 160 μM, alone or combined, 24 hours.
Type: cell-based
Experimental: as §1, with “Breast” for “Liver”, “MCF-7” for “HepG2”
`C[C@H]1[C@@H](O)O[C@@H]2O[C@@]3(C)CC[C@H]4[C@H](C)CC[C@@H]1[C@@]24OO3` [DAT, dihydroartemisinin] was tested, and the “Cell death rate (%)” value was 8.81 ± 0.83%. With `O=C(CC1NCCCC1O)Cn1cnc2cc(Br)c(Cl)cc2c1=O` (stereo not drawn) [HF, Halofuginone] the “Cell death rate (%)” value was 2.00 ± 1.28%.

Same assay, conditions: HF 20 nM, lactone 320 μM, alone or combined, 24 hours
`C[C@H]1[C@@H](O)O[C@@H]2O[C@@]3(C)CC[C@H]4[C@H](C)CC[C@@H]1[C@@]24OO3` [DAT, dihydroartemisinin] was tested, and the “Cell death rate (%)” value was 16.32 ± 1.65%. With `O=C(CC1NCCCC1O)Cn1cnc2cc(Br)c(Cl)cc2c1=O` (stereo not drawn) [HF, Halofuginone] the “Cell death rate (%)” value was 3.00 ± 0.55%.

Same assay, conditions: HF 40 nM, lactone 640 μM, alone or combined, 24 hours
For `C[C@H]1[C@@H](O)O[C@@H]2O[C@@]3(C)CC[C@H]4[C@H](C)CC[C@@H]1[C@@]24OO3` [DAT, dihydroartemisinin], the “Cell death rate (%)” value was 32.59 ± 2.43%. In the case of `O=C(CC1NCCCC1O)Cn1cnc2cc(Br)c(Cl)cc2c1=O` (stereo not drawn) [HF, Halofuginone], the “Cell death rate (%)” value was 9.10 ± 1.79%.
